Experimental data published in patent publication US7919101B2 (priority 2008, dated 2011).
pEC50: −log10 of the molar value. Values joined by “and” are separate entries in the source; they are usually repeats but may differ in a detail not shown here. Equal entries are not always repeated. Where two headings read alike, the source gives them in different places. Residues, ends and D or L forms follow the SMILES beside them.

What was measured:
[1] = tested on: HIV-1 93IN101 (subtype C, R5); conditions: for Dose reduction: 93IN101
Description: Inhibitory activity of fusion/entry inhibitors on infection by a primary HIV-1 isolate was determined as previously described (Jiang S et al. Antimicrob Agents Chemother 48:4349-4359, 2004). Peripheral blood mononuclear cells (PBMCs) were isolated from the blood of healthy donors by standard density gradient centrifugation using Histopaque-1077 (Sigma). The cells were plated in 75 cm^2 plastic flasks and incubated at 37° C. for 2 hrs. The nonadherent cells were collected and resuspended at 5×10^6 in 10 ml RPMI-1640 medium containing 10% FBS, 5 μg/ml PHA (phytohemagglutinin) and 100 U/ml IL-2 (Sigma), followed by incubation at 37° C. for 3 days. The PHA-stimulated cells were infected with a primary HIV-1 isolates at 0.01 MOI in the absence or presence of a compound at graded concentrations. Culture media were changed every 3 days. The supernatants were collected 7 days post-infection and tested for p24 antigen by ELISA as described above. The percent inhibition of p24 production and EC50 values were calculated as described above.
(§1) 4. Synergy analysis. […] In all analyses, HIV fusion/entry inhibitors were assumed to act noncompetitively, which led to a more conservative estimate of synergy. CI values<1 and >1 indicate synergy and antagonism, respectively. Dose reductions were calculated as the compound concentrations required for inhibition of HIV-1 replication when the compound was used alone and in combination. The statistic analysis was performed by the One-Way Analysis of Variance (One-Way ANOVA) method using Origin 6.1 software.

HIV-1 NL4-3D36G = assay: Inhibition of infection by T-20-sensitive strain NL4-3D36G; type: cell-based; conditions: for Dose reduction: NL4-3D36G
Description: 2. Inhibition of HIV infection as measured by luciferase assay. The inhibitory activity of fusion/entry inhibitors on HIV infection in TZM-bl cells was determined by using a luciferase assay (Wei X et al. Antimicrob. Agents Chemother. 46:1896-1905, 2002). Briefly, 50 μl of a compound at graded concentration in triplicate were incubated with an equal volume of an HIV-1 isolate at 0.01 multiplicity of infection (MOI) at 37° C. for 30 min, followed by addition of the mixture to 100 μl TZM-bl cells (1×10^5/ml) that were pre-cultured in a 96-well plate at 37° C. overnight. After further culture at 37° C. for 3 days, the cells were harvested and lyzed with 50 μl lysing reagent. The luciferase activity was analyzed using a luciferase kit (Promega Corp.) and a luminometer (Model: Ultra […], Tecan) according to the manufacture's instruction. The percent inhibition of cell fusion by a compound as well as EC50 and EC90 values were calculated using the software CalcuSyn.
3. Inhibition of HIV replication as measured by p24 antigen production. The inhibitory activity of fusion/entry inhibitors on HIV-1 infection as measured by p24 antigen production was determined as previously described (Zhao Q et al. AIDS Res Hum Retroviruses 18:989-997, 2002). In brief, 1×10^4 MT-2 cells were infected with an HIV-1 strain (100 TCID50) in 200 μl RPMI 1640 medium containing 10% FBS in the presence or absence of testing compounds at graded concentrations overnight. Then the culture supernatants were removed and fresh media containing no testing compounds were added. On the fourth day post-infection, 100 μl of culture supernatants were collected from each well, mixed with equal volumes of 5% Triton X-100 and assayed for p24 antigen, which was quantitated by ELISA. Briefly, wells of polystyrene plates were coated with HIV immunoglobulin (HIVIG, prepared from plasma of HIV-seropositive donors with high neutralizing titers against HIV-1IIIB), in 0.085 M carbonate-bicarbonate buffer (pH 9.6) at 4° C. overnight, followed by washes with washing buffer (0.01 M PBS containing 0.05% Tween-20) and blocking with PBS containing 1% dry fat-free milk. Virus lysates were added to the wells and incubated at 37° C. for 1 hr. […] Reactions were terminated by addition of 1N H2SO4. Absorbance at 450 nm was recorded in an ELISA reader (Ultra 384, TECAN). Recombinant protein p24, purchased from US Biological, was included for establishing standard dose response curves. Each sample was tested in triplicate. The percentage of inhibition of p24 production was calculated as previously described (Neurath A R et al. BMC Infect Dis 2:6, 2002).
as §1

[2] = tested on: HIV-1-mediated cell-cell fusion (H9/HIV-1IIIB cells and MT-2 cells); assay: HIV-1-mediated cell-cell fusion, dye transfer assay; type: cell-based
Description: The inhibitory activities of the compounds on HIV-induced cell-cell fusion were determined using a dye transfer assay (Jiang S et al. Proc SPIE 3926:212-219, 2000). Briefly, H9/HIV-1IIIB cells were pre-labeled with a fluorescent dye, Calcein AM (Molecular Probes, Inc.), and incubated with a testing compound at a graded concentration at 37° C. for 30 min in a 96-well cell culture plate. Then the CD4^+ MT-2 cells were added to the H9/HIV-1IIIB cells at a ratio of 10:1, followed by incubation at 37° C. for 2 hrs. The fused and unfused calcein-labeled HIV-1-infected cells were counted under an inverted fluorescence microscope with an eyepiece micrometer disc.

[3] = in combination T-20:T-1144 (4:1)
[4] = in combination T-20:T-1144 (4:1) vs alone
[5] = in combination T-20:T-1249:T-1144 (4:1:1)
[6] = in combination T-20:T-1249:T-1144 (4:1:1) vs alone
[7] = in combination T-1144:C34 (2:1)
[8] = in combination T-1144:C34 (2:1) vs alone
[9] = in combination T-1249:T-1144 (1:1)
[10] = in combination T-1249:T-1144 (1:1) vs alone

For CC[C@H](C)[C@H](NC(=O)[C@H](C)NC(=O)[C@H](CCCNC(=N)N)NC(=O)[C@H](CC(=O)O)NC(=O)[C@H](Cc1c[nH]c2ccccc12)NC(=O)[C@H](C)NC(=O)[C@H](CCC(=O)O)NC(=O)[C@H](Cc1c[nH]c2ccccc12)NC(=O)[C@@H](NC(=O)[C@@H](NC(C)=O)[C@@H](C)O)[C@@H](C)O)C(=O)N[C@@H](C)C(=O)N[C@@H](CCC(=O)O)C(=O)N[C@@H](Cc1ccc(O)cc1)C(=O)N[C@@H](C)C(=O)N[C@@H](C)C(=O)N[C@@H](CCCNC(=N)N)C(=O)N[C@H](C(=O)N[C@@H](CCC(=O)O)C(=O)N[C@@H](C)C(=O)N[C@@H](CC(C)C)C(=O)N[C@@H](CC(C)C)C(=O)N[C@@H](CCCNC(=N)N)C(=O)N[C@@H](C)C(=O)N[C@@H](CC(C)C)C(=O)N[C@@H](CCC(N)=O)C(=O)N[C@@H](CCC(=O)O)C(=O)N[C@@H](CCC(N)=O)C(=O)N[C@@H](CCC(N)=O)C(=O)N[C@@H](CCC(=O)O)C(=O)N[C@@H](CCCCN)C(=O)N[C@@H](CC(N)=O)C(=O)N[C@@H](CCC(=O)O)C(=O)N[C@@H](C)C(=O)N[C@@H](C)C(=O)N[C@@H](CC(C)C)C(=O)N[C@@H](CCCNC(=N)N)C(=O)N[C@@H](CCC(=O)O)C(=O)N[C@@H](CC(C)C)C(N)=O)[C@@H](C)CC [T-1144] (Ac-TTWEAWDRAIAEYAARIEALLRALQEQQEKNEAALREL-NH2; N-terminus and C-terminus assumed), the Dose reduction ([1]; T-20+T-1249+T-1144 4:1:1) was 24.17 fold, the Dose reduction ([1]; T-20 combined with T-1144) was 14.46 fold and the pEC50 ([1]; read-out: EC50 alone, 93IN101 (C, R5) primary isolate, peptide alone) was 7.81. The pEC50 (HIV-1 NL4-3D36G; NL4-3D36G (T-20-sensitive), peptide alone) was 8.23, the Dose reduction (HIV-1 NL4-3D36G; T-20+T-1249+T-1144 7:5:1) was 15.81 fold and the Dose reduction (HIV-1 NL4-3D36G; T-20 combined with T-1144) was 13.00 fold. For the same compound, the “EC70 Concentration Mix” value [2, 3] was 8 pM, the “EC95 Concentration Mix” value [2, 3] was 13 pM and the “Potency increase at EC50” value [2, 4] was 435.500 fold. The “Potency increase at EC70” value [2, 4] was 444.250 fold, the “Potency increase at EC90” value [2, 4] was > 438 fold and 439.455 fold and the “Potency increase at EC95” value [2, 4] was 458.462 fold. For the same compound, the “EC70 Concentration Mix” value [2, 5] was 5 pM, the “EC95 Concentration Mix” value [2, 5] was 7 pM and the “Potency increase at EC50” value [2, 6] was 653.250 fold. For the same compound, the “Potency increase at EC70” value [2, 6] was 710.800 fold, the “Potency increase at EC90” value [2, 6] was 805.667 fold and the “Potency increase at EC95” value [2, 6] was 851.429 fold. For the same compound, the EC90 ([2]; in combination T-20:T-1249:T-1144 (4:1:1), read-out: EC90 Concentration Mix) was 6 pM, the “EC70 Concentration Mix” value [2, 7] was 408 pM and the “EC95 Concentration Mix” value [2, 7] was 659 pM. The “Potency increase at EC50” value [2, 8] was 8.511 fold, the “Potency increase at EC70” value [2, 8] was 8.711 fold and the “Potency increase at EC95” value [2, 8] was 9.044 fold. The EC90 ([2]; in combination T-1144:C34 (2:1), read-out: EC90 Concentration Mix) was 543 pM, the “EC70 Concentration Mix” value [2, 9] was 232 pM and the “EC95 Concentration Mix” value [2, 9] was 374 pM. For the same compound, the “Potency increase at EC50” value [2, 10] was 15.017 fold, the “Potency increase at EC70” value [2, 10] was 15.319 fold and the “Potency increase at EC90” value [2, 10] was 15.695 fold. For the same compound, the “Potency increase at EC95” value [2, 10] was 15.936 fold, the EC90 ([2]; in combination T-1249:T-1144 (1:1), read-out: EC90 Concentration Mix) was 308 pM and the “EC70 Concentration Alone” value ([2]; peptide tested alone) was 3554 pM. The “EC95 Concentration Alone” value ([2]; peptide tested alone) was 5960 pM, the pEC50 ([2]; peptide tested alone, read-out: EC50 Concentration Alone) was 8.58 and the EC90 ([2]; peptide tested alone, read-out: EC90 Concentration Alone) was 4830 pM.
